The source of these data is publication PMC3626118 (Combinatorial chemistry & high throughput screening, 2009).

Series [1] addresses T1, RNA triphosphatase TbCet1 (Trypanosoma brucei brucei, UniProt Q582T2).
T1 sequence (Q582T2 1-253): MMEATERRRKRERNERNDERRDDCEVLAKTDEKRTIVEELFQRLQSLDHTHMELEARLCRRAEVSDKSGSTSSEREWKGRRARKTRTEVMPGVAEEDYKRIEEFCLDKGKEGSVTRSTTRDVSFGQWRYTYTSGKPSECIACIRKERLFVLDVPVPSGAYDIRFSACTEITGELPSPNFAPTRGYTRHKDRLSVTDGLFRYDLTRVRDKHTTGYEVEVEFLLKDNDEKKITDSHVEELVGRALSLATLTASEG
Briefly: Transcreener ADP fluorescence polarization assay, dose-response. Format: biochemical.

Series [2] is described as follows: physchem. Conditions: pH 8, aqueous buffer, kinetic from dmso stock.
A short description of series [3]: Solubility by laser nephelometry in assay conditions. Conditions: for Sol. (solubility threshold): laser nephelometry, assay conditions.

`Oc1cc2c(cc1O)C1c3ccc(O)c(O)c3OCC1(O)C2` (stereo not shown) [SKI 209325, Haematoxylin] returned an IC50 in series [1] of 1700 nM. This molecule also showed a solubility in series [2] of more than 100 µM.
For the molecule `O=c1c(O)cc([C@H]2Oc3cc(O)cc(O)c3C[C@H]2O)cc2c([C@H]3Oc4cc(O)cc(O)c4C[C@H]3O)cc(O)c(O)c12` [SKI 209343, Theaflavin], half-maximal inhibition in series [1] (IC50) required 8800 nM.
Still for that read-out and setting: to `O=c1c(-c2cc(O)c(O)c(O)c2)coc2cc(O)c(O)c(O)c12` [SKI 209392, Irigenol] belongs 65 nM.
`O=C(O[C@@H]1Cc2c(O)cc(O)cc2O[C@@H]1c1cc(O)c(O)c(O)c1-c1c([C@H]2Oc3cc(O)cc(O)c3C[C@H]2O)cc(O)c(O)c1O)c1cc(O)c(O)c(O)c1` [SKI 209412, 2′,2′-Bisepigallocatechin monogallate]: it took 10 nM to reach half-maximal inhibition in series [1] (IC50).
As for `O=C(Oc1cc(O)cc2c1C[C@@H](OC(=O)c1cc(O)c(O)c(O)c1)[C@@H](c1cc(O)c(O)c(O)c1)O2)c1cc(O)c(O)c(O)c1` [SKI 209415, Epigallocatechin-3,5-digallate], the “Sol. (solubility threshold)” value in series [3] is more than 100 µM.
In series [1], `Oc1cc(O)c2c(c1)O[C@H](c1cc(O)c(O)c(O)c1)[C@H](O)C2` [SKI 209444, Epigallocatechin] returned an IC50 of 4400 nM.
Consider `O=C(O[C@@H]1Cc2c(O)cc(O)cc2O[C@@H]1c1ccc(O)c(O)c1)c1cc(O)c(O)c(O)c1` [SKI 209457, Epicatechin monogallate], for which the “Sol. (solubility threshold)” value in series [3] was more than 100 µM.
For the molecule `O=C(O[C@@H]1Cc2c(O)cc(O)cc2O[C@@H]1c1cc(O)c(O)c(O)c1)c1cc(O)c(O)c(O)c1` [SKI 209458, Epigallocatechin-3-monogallate], the “Sol. (solubility threshold)” value in series [3] is more than 100 µM.
For `O=c1c(O)cccc2cc(O)c(O)c(O)c12` [SKI 209468, Purpurogallin], the IC50 in series [1] turned out to be 210 nM.
Still for that read-out and setting: the same measure for `O=c1c(O)cccc2c([C@H]3Oc4cc(O)cc(O)c4C[C@H]3O)cc(O)c(O)c12` [SKI 209509, Theaflavanin]: 440 nM; for `COc1cc(O)c2c(=O)c(O)c(-c3ccc(O)c(O)c3)oc2c1` [SKI 209674, Rhamnetin]: 3900 nM.
`NC[C@H](O)c1ccc(O)c(O)c1` [SKI 210170, Norepinephrine, reference compound] displayed an IC50 in series [1] of 720 nM. The same molecule gave a solubility in series [2] of more than 100 µM.
For `O=c1oc2c(O)c(O)cc3c(=O)oc4c(O)c(O)cc1c4c23` [SKI 210886, Ellagic acid], half-maximal inhibition in series [1] (IC50) required 35 nM.
The same measure, in the same setting: the same measure for `O=c1c(O)c(-c2ccc(O)c(O)c2)oc2cc(O)ccc12` [SKI 210887, Fisetin]: 2100 nM; for `O=C1C=C2CC3(O)COc4c(ccc(O)c4O)C3=C2C=C1O` (stereo not shown) [SKI 210893, Hematein]: 200 nM.
With `O=c1c(O)c(-c2cc(O)c(O)c(O)c2)oc2cc(O)cc(O)c12` [SKI 211290, Myricetin], the solubility in series [3] (pH 8, aqueous buffer, kinetic from dmso stock) was more than 100 µM. This molecule also returned an IC50 in series [1] of 7200 nM.
For the molecule `N[C@@H](Cc1ccc(O)c(O)c1)C(=O)O` [SKI 211511, Levodopa, reference compound], in series [1], it took 30 nM to reach half-maximal inhibition (IC50). This molecule came in with a solubility in series [2] of more than 100 µM.
For `Nc1cccc2c1C(=O)c1cccc(N)c1C2=O` [SKI 217754, Anthraquinone, 1,5-diamino], the “Sol. (solubility threshold)” value in series [3] was more than 100 µM.

By IC50 is commonly meant the midpoint of a concentration-inhibition curve. A low value points to greater potency in that assay. Usually solubility stands for the concentration that dissolves in the medium under given conditions. A high value points to a readily soluble substance.
